Experimental data taken from article PMC4649711, “In1-ghrelin splicing variant is overexpressed in pituitary adenomas and increases their aggressive features” (Scientific Reports, 2015).

How the values were obtained:
ACTH-omas [1] = test system: ACTH-omas; set-up: method as in PMID 17280594; conditions: previous data; cited from earlier work
ACTH-omas [2] = experiment: cell viability of ACTH-oma primary cultures, peptide treatment; format: cell-based, human; conditions: 100 nM, 24 h, alamar-blue, n = 2–8
Description: Pituitary adenoma specimens were dispersed into single cells by enzymatic and mechanical disruption and cultured onto tissue culture plates in serum containing medium, as previously described. Briefly, pituitary samples were resected by endoscopic transsphenoidal surgery and transferred to sterile cold (4°C) culture medium (S-MEM, Gibco, Madrid, Spain) supplemented with 0.1% BSA, 0.01% L-glutamine, 1% antibiotic-antimycotic solution, and 2.5% HEPES. Samples were minced under sterile conditions into 1–2 mm^3 pieces. Some pieces were stored at −80°C for posterior RNA isolation and, when possible, the remaining tissue samples were washed and incubated in 30 mL S-MEM medium supplemented 0.3% trypsin (Beckson, Dickinson and Company, Sparks, MD, USA) in a spinner flask (Bellco Glass, Vineland, NJ, USA) for 2 h of gentle shaking at 37°C and then, incubation was continued for another 5 min in presence of 1 mg of DNAse I (Roche, Mannheim, Germany). Dispersed cells were decanted by centrifugation and then, by repeated aspiration into a smoothtipped glass Pasteur pipette. […]
As previously reported, cell viability was estimated using alamar-blue reagent (10,000 cells/well-plate; Biosource International, Camarillo, CA, USA)[30][50][52]. […] Reduction of alamar-blue reagent was quantified exciting at 560 nm and reading at 590 nm using the FlexStation III system (Molecular Devices, Sunnyvale, CA, USA). […]

[3] = test system: other endocrine cell types (e.g. pancreatic cells); set-up: method as in PMID 17068144; conditions: cited from earlier work
ACTH-omas [4] = experiment: ACTH secretion from ACTH-oma primary cultures; format: cell-based, human; conditions: 100 nM; 24 h; ELISA; % of vehicle; n = 3–9
Description: Pituitary adenoma specimens were dispersed into single cells by enzymatic and mechanical disruption and cultured onto tissue culture plates in serum containing medium, as previously described. Briefly, pituitary samples were resected by endoscopic transsphenoidal surgery and transferred to sterile cold (4°C) culture medium (S-MEM, Gibco, Madrid, Spain) supplemented with 0.1% BSA, 0.01% L-glutamine, 1% antibiotic-antimycotic solution, and 2.5% HEPES. Samples were minced under sterile conditions into 1–2 mm^3 pieces. […]
To examine the effects of ghrelin system components (4- and/or 24 h-incubation) on pituitary hormone release from primary pituitary adenoma and/or AtT-20 cell line, 100,000–200,000 cell/well were used. As previously reported, hormone concentrations were measured in the culture media derived from human samples according to the pituitary adenoma type using commercial ELISAs [growth hormone, GH; adrenocorticotropin, ACTH; and prolactin, PRL (reference numbers: EIA-3552, EIA-3647 and EIA-1291, respectively; DRG, Mountainside, NJ, USA)] following the manufacturer's instructions. […]

CCCCCCCC(=O)OC[C@H](NC(=O)[C@H](CO)NC(=O)CN)C(=O)N[C@@H](Cc1ccccc1)C(=O)N[C@@H](CC(C)C)C(=O)N[C@@H](CO)C(=O)N1CCC[C@H]1C(=O)N[C@@H](CCC(=O)O)C(=O)N[C@@H](Cc1c[nH]cn1)C(=O)N[C@@H](CCC(N)=O)C(=O)N[C@@H](CCCNC(=N)N)C(=O)N[C@H](C(=O)N[C@@H](CCC(N)=O)C(=O)N[C@@H](CCC(N)=O)C(=O)N[C@@H](CCCNC(=N)N)C(=O)N[C@@H](CCCCN)C(=O)N[C@@H](CCC(=O)O)C(=O)N[C@@H](CO)C(=O)N[C@@H](CCCCN)C(=O)N[C@@H](CCCCN)C(=O)N1CCC[C@H]1C(=O)N1CCC[C@H]1C(=O)N[C@@H](C)C(=O)N[C@@H](CCCCN)C(=O)N[C@@H](CC(C)C)C(=O)N[C@@H](CCC(N)=O)C(=O)N1CCC[C@H]1C(=O)N[C@@H](CCCNC(=N)N)C(=O)O)C(C)C [AG]
ACTH release (ACTH-omas [1]): able to elicit an effect on ACTH release | cell viability (ACTH-omas [2]): increased cell viability | apoptotic rate [3]: did not affect the apoptotic rate | ACTH secretion (ACTH-omas [4]): significantly increased ACTH secretion
